According to publication PMC11049802 (International Journal of Molecular Sciences, 2024):

Biological target: E. coli nitroreductase A (NfsA) (Escherichia coli, UniProt P17117)
Assay: steady-state kinetics; competitive inhibition versus NADPH (also reduced as a substrate)
Format: biochemical

E. coli nitroreductase A (NfsA), sequence (P17117 whole entry): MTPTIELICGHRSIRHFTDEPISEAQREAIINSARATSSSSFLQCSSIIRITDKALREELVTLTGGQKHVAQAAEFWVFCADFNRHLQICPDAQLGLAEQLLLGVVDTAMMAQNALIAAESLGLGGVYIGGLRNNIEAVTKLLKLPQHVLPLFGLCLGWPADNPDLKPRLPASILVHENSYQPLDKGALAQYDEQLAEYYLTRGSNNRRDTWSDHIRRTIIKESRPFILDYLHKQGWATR

Molecule `CC(=O)c1ccc[n+]([C@@H]2O[C@H](COP(=O)([O-])OP(=O)(O)OC[C@H]3O[C@@H](n4cnc5c(N)ncnc54)[C@H](OP(=O)(O)O)[C@@H]3O)[C@@H](O)[C@H]2O)c1` [APADP+] has a Ki of 150 ± 12 µM.
